From US12390467B2, “Necroptosis inducers or autophagy inhibitors or a combination thereof” (The University of Toledo, priority 2018, dated 2025)
Like-named read-outs stand apart in the source and are kept apart here.

Experiments:
Format in all cases: cell-based
[1] = test system: ZR-75-1 (non-TNBC cell line); assay: MTT cell viability assay, ZR-75-1; conditions: read-out: IC50 ± SD, ZR-75-1
Procedure: (§1) The following cancer and non-cancer cell lines were used in the initial cytotoxicity screening of the TPH104 compounds: triple negative breast cancer (TNBC): MDA-MB468, MDA-MB 231, and BT-20; non-TNBC: MCF-7 and ZR-75-1; ovarian: Ov2008; prostate: DU145; colon: HCT-116, S1, and LOVO; lung: H460; normal kidney: HEK-293; normal breast: HMEC; and normal colon: CRL-1459. All cells were cultured in Dulbecco's modified Eagle medium (DMEM), supplemented with 10% fetal bovine serum (FBS), and 1% penicillin/streptomycin (P/S). Cells were allowed to grow as adherent monolayers in T25 flasks in a humidified incubator with 5% CO2 at 37° C. for a period of 24 h, unless otherwise specified for certain experiments.
(§2) The MTT assay was used to determine the cytotoxicity of all of the compounds. Briefly, in a 96-well flat-bottom cell culture plate, the cells were seeded at a density between 3-5×10^3 cells/well (180 μl in each well) and incubated for 24 h (a hemocytometer was used for cell counting). The next day, the cells were incubated with different concentrations of the nine compounds (0, 0.1, 0.3, 1, 3, 10, 30, and 100 μM) for 72 h. After 72 h, 20 μl of 5 mg/ml of 3-(4,5-dimethylthiazol-2-yl)-2,5-diphenyltetrazolium bromide (MTT) was added to the plate and incubated with the cells for 3 h at 37° C. In this experiment, the living cells will reduce the soluble MTT dye to non-soluble purple formazan crystals. Following incubation, the media containing MTT removed via suction and 100 μL of 100% dimethyl sulfoxide (DMSO) was added to dissolve the formazan crystals. Subsequently, the plate was shaken for 2 minutes and the absorbance was measured at a wavelength of 570 nm using a SpectraMax iD3 Multi-Mode Microplate Reader (Molecular Devices, Sunnyvale, CA). The IC50 values of each compound were calculated and used to determine the selectivity ratio (IC50 in normal cells/IC50 in cancer cells) of each compound as previously described. Based on the results obtained from these experiments, the compound TPH104, which had the lowest IC50 value, was selected for further experiments.

[2] = test system: MCF-7 (non-TNBC cell line); assay: MTT cell viability assay, MCF-7; conditions: read-out: IC50 ± SD, MCF-7
Procedure: as §1, §2

[3] = test system: normal human mammary epithelial cells (HMEC); assay: MTT cell viability assay, HMEC
Procedure: as §1, §2

[4] = test system: other normal cell lines (colon and kidney); assay: MTT cytotoxicity, other normal cell lines
Procedure: as §1
The MTT assay was used to determine the cytotoxicity of all of the compounds. Briefly, in a 96-well flat-bottom cell culture plate, the cells were seeded at a density between 3-5×10^3 cells/well (180 μl in each well) and incubated for 24 h (a hemocytometer was used for cell counting). […] Subsequently, the plate was shaken for 2 minutes and the absorbance was measured at a wavelength of 570 nm using a SpectraMax iD3 Multi-Mode Microplate Reader (Molecular Devices, Sunnyvale, CA). The IC50 values of each compound were calculated and used to determine the selectivity ratio (IC50 in normal cells/IC50 in cancer cells) of each compound as previously described. […]

[5] = test system: BT-20 cells; assay: Hoechst 33258 assay and live cell morphology, BT-20
Procedure: FIGS. 8A-8B: Representative images of morphological changes in BT-20 TNBC cells incubated with 0, 1, or 3 μM of TPH104 (FIG. 8A). The images were taken using an incuCyte live cell imaging instrument.
To detect DNA fragmentation following apoptotic cell death, the Hoechst 33258 assay was performed. Briefly, TNBC cells were seeded in a 6-well plate at a density of 10,000 cells/well over 18-mm cover slips and incubated for 24 h. Following incubation, TPH104 (1, 2, or 5 μM), or vehicle were added for an additional 12 h. Subsequently, Hoechst 33258 (Sigma Aldrich, USA) was added to the cells at a concentration of 0.5 mg/mL and incubated for 30 minutes at 37° C. The cells were then washed 3× with phosphate buffered saline (PBS). Subsequently, the cover slips were mounted on a microscope glass/slide and allowed to dry for at least 2 h. Stained cells from each cover slip were captured from randomly selected fields under a fluorescent microscope (EVOS-FLC cell imaging system, Thermofisher scientific) to qualitatively determine the proportion of viable and apoptotic cells based on their relative fluorescence and nuclear fragmentation as previously described.

[6] = test system: MDA-MB231 cells; assay: Scratch/wound healing assay
Procedure: MDA-MB231 cells were seeded in a 6 well-plate (10-20,000 cells/well) and incubated at 37° C. until they reached 60-80% confluence and formed a complete monolayer, as previously reported. Subsequently, a wound was created by scratching the monolayer with a 10 μl sterile pipette tip. The floating cells were washed away with sterile PBS, making the wound area clear and completely empty. Immediately following monolayer scratching, TPH104 (0.5, 1, 2, 5 or 10 μM) or vehicle were added to the cell culture media (2 ml total in each well) and incubated at 37° C. for 36 h. The wound closure was monitored over time by taking pictures after 0 h, 12 h, 24 h, and 36 h of incubation using an EVOS-FLC microscope. Image J software NIH, Bethesda, MD, USA) was used to determine the areas of the wound at different time points as previously reported.

[7] = molecular target: T1, BCRP (ABCG2), MCF-7 M100 breast cancer cells (Homo sapiens, UniProt Q9UNQ0); assay: Hoechst 33342 assay for BCRP modulation; conditions: concentration dependent
T1 construct: endogenous in cells; host or cells: MCF-7 M100 breast cancer cells
Procedure: Ability of BCRP to efflux nuclear stain Hoechst 33342 was used to identify the molecules which interfere with BCRP transporter activity. About 14000 cells of MCF-7 M100 breast cancer cells were seeded in each well in 96 well plates and allowed to grow until confluency for 4-5 days. Then media was replaced with phenol red free RPMI media and cells were treated with indicated concentrations of TPH104s and 5 μg/mL of Hoechst 33342. Fluorescence measured after 60 minutes with excitation at 361/20 nm and at emission 497/20 nm using the BioTek Cytation 5 imaging multi-mode reader (Bio-Tek, Winooski, VT). DMSO (0.5% v/v) was used as the vehicle, and 0.5 μM of BCRP inhibitor, Ko143 was used as a positive control and 15 μM of P-gp modulator, verapamil was used as negative control.

T1 sequence (Q9UNQ0 whole entry): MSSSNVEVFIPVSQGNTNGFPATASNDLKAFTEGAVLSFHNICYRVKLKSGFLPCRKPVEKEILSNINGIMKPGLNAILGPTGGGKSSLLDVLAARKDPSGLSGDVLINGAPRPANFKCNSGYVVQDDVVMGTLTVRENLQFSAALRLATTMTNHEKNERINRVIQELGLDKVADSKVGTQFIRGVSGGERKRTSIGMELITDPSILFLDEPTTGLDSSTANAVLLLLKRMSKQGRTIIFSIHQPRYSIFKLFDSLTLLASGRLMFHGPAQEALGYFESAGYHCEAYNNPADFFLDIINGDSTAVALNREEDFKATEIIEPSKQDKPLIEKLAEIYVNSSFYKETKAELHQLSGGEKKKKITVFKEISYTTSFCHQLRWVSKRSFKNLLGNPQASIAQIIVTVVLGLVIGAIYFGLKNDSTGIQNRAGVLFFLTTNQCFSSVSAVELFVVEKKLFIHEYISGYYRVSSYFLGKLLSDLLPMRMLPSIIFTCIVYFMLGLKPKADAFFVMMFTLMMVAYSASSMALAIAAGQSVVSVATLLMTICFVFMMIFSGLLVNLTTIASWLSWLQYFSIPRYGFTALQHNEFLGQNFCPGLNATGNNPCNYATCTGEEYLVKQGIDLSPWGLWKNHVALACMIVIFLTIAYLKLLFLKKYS

COc1ccc(O)c(/C=N/Nc2ncnc3scc(-c4ccc(C)cc4)c23)c1 [TPH104]
IC50 ([1]; 72 h): 8.56 ± 1.95 µM
IC50 ([1]; Homo sapiens, ZR-75-1, 72 h): 8.6 µM
IC50 ([2]; 72 h): 3.84 ± 1.36 µM
IC50 ([2]; Homo sapiens, MCF7, 72 h): 3.8 µM
selectivity fold on TNBC cells compared to normal human mammary epithelial cells [3]: more than 100 fold
IC50 for HMEC, fold higher than the IC50 values for TNBC cells ([3]; HMEC vs TNBC cells): 330-411 fold
IC50 ([3]; Homo sapiens, HMEC, MTT, 72 h, Normal, read-out: IC50 ± SD, HMEC): 82.3 µM
selectivity fold in comparison to other normal cell lines (colon and kidney) [4]: up to 30 fold
cellular shrinkage ([5]; 1 μM and 3 μM): did not induce cellular shrinkage
rupture of the cellular membrane ([5]; 1 μM and 3 μM): did induce rupture
nuclear condensation ([5]; 1, 2, and 5 μM, 12 h): did not show nuclear condensation
death of cells ([6]; 10 μM, after 12 h of incubation): 70%
mobility and migration ([6]; 0.5, 1, 2, 5, and 10 μM): significantly decreased
wound closure ([6]; 1, 2, 5, and 10 μM): significantly reduced
efflux function of ABCG2 [7]: blocking the efflux function
